According to patent publication US12678446B2 (PFIZER INC., priority 2020, dated 2026):

Key:
[1] = system: RSV (RSV A2 ECACC, 0709161v); experiment: RSV plaque reduction assay; assay type: cell-based, respiratory syncytial virus; conditions: human respiratory syncytial virus, HepG2, read-out: RSV A2 Plaque EC50, RSV A2 in Hep-G2 cells; mean of at least two experiments unless noted (n = 1)
Procedure, shortened: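 Eight-point compound dilutions were premixed with RSV A2 (100 PFU/well) and applied to confluent Hep-G2 cells for 2 h, followed by a 2-day incubation at 37° C. under compound-containing 0.8% CMC overlay. EC50 comes from immunostained plaque counts relative to untreated virus wells, averaged over ≥2 runs.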

cell toxicity CC50 = assay type: cell-based; conditions: human; Hep-G2 cells; mean of at least two experiments; read-out: Cell Cytotoxicity CC50

Row | Compound | EC50 [1] | CC50 (cell toxicity CC50)
1 | C[C@@H]1CCn2nc(-c3cnn(C4COC4)c3)c(C(=O)N[C@H]3N=C(c4ccccc4)c4cccc(F)c4NC3=O)c2O1 [Example 116, (5R)-N-[(3S)-9-fluoro-2-oxo-5-phenyl-1,3-dihydro-1,4-benzodiazepin-3-yl]-5-methyl-2-[1-(oxetan-3-yl)pyrazol-4-yl]-6,7-dihydro-5H-pyrazolo[5,1-b][1,3]oxazine-3-carboxamide] | 127 nM | > 25000 nM
2 | CCNc1ccc(-c2nn3c(c2C(=O)N[C@H]2N=C(c4ccccc4)c4cccc(F)c4NC2=O)OCCC3)cn1 [Example 20, 2-[6-(Ethylamino)pyridin-3-yl]-N-[(3S)-9-fluoro-2-oxo-5-phenyl-1,3-dihydro-1,4-benzodiazepin-3-yl]-6,7-dihydro-5H-pyrazolo[5,1-b][1,3]oxazine-3-carboxamide] | 42 nM | > 25000 nM
3 | CC(C)Nc1ccc(-c2nn3c(c2C(=O)N[C@H]2N=C(c4ccccc4)c4cccc(F)c4NC2=O)O[C@@H](C)CC3)c(F)n1 [Example 31, (5S)-N-[(3S)-9-fluoro-2-oxo-5-phenyl-1,3-dihydro-1,4-benzodiazepin-3-yl]-2-[2-fluoro-6-(propan-2-ylamino)pyridin-3-yl]-5-methyl-6,7-dihydro-5H-pyrazolo[5,1-b][1,3]oxazine-3-carboxamide] | 11 nM | > 25000 nM
4 | CS(=N)(=O)c1ccc(-c2nn3c(c2C(=O)N[C@H]2N=C(c4ccccc4)c4cccc(F)c4NC2=O)OCCC3)c(F)c1 (stereo partly drawn) [Example 143, 2-[2-Fluoro-4-(methylsulfonimidoyl)phenyl]-N-[(3S)-9-fluoro-2-oxo-5-phenyl-1,3-dihydro-1,4-benzodiazepin-3-yl]-6,7-dihydro-5H-pyrazolo[5,1-b][1,3]oxazine-3-carboxamide] | 149 nM | > 25000 nM
5 | CCS(=O)(=O)N1CCC(c2nn3c(c2C(=O)N[C@H]2N=C(c4ccccc4)c4cccc(F)c4NC2=O)O[C@H](C)CC3)CC1 [Example 201, (5R)-2-(1-Ethylsulfonylpiperidin-4-yl)-N-[(3S)-9-fluoro-2-oxo-5-phenyl-1,3-dihydro-1,4-benzodiazepin-3-yl]-5-methyl-6,7-dihydro-5H-pyrazolo[5,1-b][1,3]oxazine-3-carboxamide] | 49 nM | > 25000 nM
6 | COC1COc2c(C(=O)N[C@H]3N=C(c4ccccc4)c4cccc(F)c4NC3=O)c(-c3ccccc3F)nn2C1 (stereo partly drawn) [Example 175, 2-(2-Fluorophenyl)-6-methoxy-N-[(3S)-9-fluoro-2-oxo-5-phenyl-1,3-dihydro-1,4-benzodiazepin-3-yl]-6,7-dihydro-5H-pyrazolo[5,1-b][1,3]oxazine-3-carboxamide] | 61 nM | > 25000 nM
7 | COc1cc(-c2nn3c(c2C(=O)N[C@H]2N=C(c4ccccc4)c4ccccc4NC2=O)O[C@H](C)CC3)ccn1 [Example 49, (5R)-2-(2-Methoxypyridin-4-yl)-5-methyl-N-[(3S)-2-oxo-5-phenyl-1,3-dihydro-1,4-benzodiazepin-3-yl]-6,7-dihydro-5H-pyrazolo[5,1-b][1,3]oxazine-3-carboxamide] | 243 nM | > 25000 nM
8 | CC(C)Nc1ccc(-c2nn3c(c2C(=O)N[C@H]2N=C(c4ccccc4)c4cccc(F)c4NC2=O)O[C@@H](C)CC3)cn1 [Example 69] | 34 nM | > 25000 nM
9 | Cc1cnc(F)c(-c2nn3c(c2C(=O)N[C@H]2N=C(c4ccccc4)c4ccccc4NC2=O)OCCC3)c1 [Example 42, 2-(2-Fluoro-5-methylpyridin-3-yl)-N-[(3S)-2-oxo-5-phenyl-1,3-dihydro-1,4-benzodiazepin-3-yl]-6,7-dihydro-5H-pyrazolo[5,1-b][1,3]oxazine-3-carboxamide] | 124 nM | > 25000 nM
10 | C[C@@H]1CCn2nc(-c3ccoc3)c(C(=O)N[C@H]3N=C(c4ccccc4)c4ccccc4NC3=O)c2O1 [Example 62, (5R)-2-(3-Furyl)-5-methyl-N-[(3S)-2-oxo-5-phenyl-1,3-dihydro-1,4-benzodiazepin-3-yl]-6,7-dihydro-5H-pyrazolo[5,1-b][1,3]oxazine-3-carboxamide] | 192 nM | > 25000 nM
